Experimental data published in US20070036775A1 (priority 2001, published 2007).
Peptide text beside a SMILES is read from it. * marks the point of attachment. Cbz = O=C(OCc1ccccc1)*; CH2F = FC*

B1: TRAIL: cytokine, Tumor Necrosis Factor-Related Apoptosis-Inducing Ligand, human recombinant (protein, UniProt P50591 1-281, looked up)
Tumor necrosis factor ligand …: MAMMEVQGGPSLGQTCVLIVIFTVLLQSLCVAVTYVYFTNELKQMQDKYSKSGIACFLKEDDSYWDPNDEESMNSPCWQVKWQLRQLVRKMILRTSEETISTVQEKQQNISPLVRERGPQRVAAHITGTRGRSNTLSSPNSKNEKALGRKINSWESSRSGHSFLSNLHLRNGELVIHEKGFYYIYSQTYFRFQEEIKENTKNDKQMVQYIYKYTSYPDPILLMKSARNSCWSKDAEYGLYSIYQGGIFELKENDRIFVSVTNEHLIDMDHEASFFGAFLVG

Columns and labels:
Hela cells = test: STS-induced apoptosis in Hela cells, Hoechst staining of apoptotic nuclei; format: cell-based, human; settings: for percentages of apoptotic cells: Hela cells, one day; for effect on STS-induced apoptosis: HeLa cells transfected with Ku70 construct, 24 hours
Description: Hela cells (10^6 cells) were transfected with 0.5 μg pEGFP and 1.0 μg pCMV-2B (Vector), pCMV-2B-Ku70 (Ku70 wt), pCMV-2B-Ku701-535 (Ku701-535), or pCMV-2B-Ku70536-609 (Ku70536-609). One day following transfection, cells were treated with 200 nM STS and the number of apoptotic cells was counted as described in FIG. 1 after 24 hours of STS treatment.
Hela cells (10^6 cells) were treated with 200 nM STS in the absence (STS) or presence of z-VAD-fmk (STS+z-VAD).

HEK293T cells [1] = test: UVC-irradiation-induced apoptosis in HEK293T cells, Hoechst staining; format: cell-based; settings: for effect on UVC-irradiation-induced cell death: HEK293T cells transfected with Ku70 construct, 200 J/m^2 UVC, 24 hours
Description: HEK293T cells (10^6 cells) were transfected with 0.5 μg PEGFP and 1.0 μg pCMV-2B (Vector), pCMV-2B-Ku70 wt (Ku70 wt), or pCMV-2B-Ku70536-609 (Ku70536-609). One day following transfection, cells were exposed to 200 J/m^2 of UVC-irradiation. After 24 hours, apoptotic cells were counted as described in FIG. 1.
One day following transfection, except in the control group (Control), cells were exposed to UVC-irradiation in the absence (UV or UV+Ku70) or the presence of 50 uM z-VAD-fmk (UV+z-VAD).
HEK293T cells, HeLa cells, and mouse embryonic fibroblasts (MEF) were cultured in DMEM supplemented with 10% fetal bovine serum (FBS).

HEK293T cells [2] = test: Bax-induced apoptosis in HEK293T cells (pcDNA3-Bax transfection); format: cell-based; settings: HEK293T cells co-transfected with pcDNA3-Bax and Ku70 construct, 24 hours
Description: 10^6 cells were transfected with 1.0 μg of pcDNA3 (Control) or pcDNA3-Bax (Bax) together with 0.5, 1.0, or 2.0 μg of pCMV-2B-Ku70 wt (Ku70 wt) or pcDNA3-Myc-XIAP (XIAP). In “Bax+Vector” group, 1.0 μg pcDNA3-Bax and 2 ug of pCMV-2B were used, respectively (Control and Bax+Vector). All the cells were also co-transfected with 0.5 μg pEGFP for the marking of transfected cells. Apoptosis in the transfected cells was analyzed 24 hours following transfection with Hoechst dye staining of the nucleus as described in Experimental Procedure. […] 10^6 cells were transfected with 1.0 μg pcDNA3-Bax and 2.0 μg pCMV-2B (Bax+Vector), pCMV-2B-Ku70 wt (Bax+Ku70 wt), or pcDNA3-Myc-XIAP (Bax+XIAP). […] Apoptosis in the transfected cells was analyzed at 24 hours (Control) or the indicated time points following transfection. […] After 24 hours, apoptotic cells were counted as described in FIG. 1B. […] The number of apoptotic cells was determined as described in FIG. 1B. […] Apoptosis in the transfected cells was analyzed at the indicated periods following transfection as described in FIG. 1C.
HEK293T cells, HeLa cells, and mouse embryonic fibroblasts (MEF) were cultured in DMEM supplemented with 10% fetal bovine serum (FBS). […] Apoptosis in the transfected cells were analyzed as follows: Plasmid encoding EGFP (0.5 ug of pEGFP) was transfected to all the groups to mark the transfected cells. […]

Bax [3] = molecular target: T1, Bax (Homo sapiens, UniProt Q07812); test: Co-immunoprecipitation of Flag-tagged Ku70 constructs and Bax; format: binding; settings: HEK293T cells, Flag-tagged constructs, 50 uM z-VAD-fmk, Chaps-based buffer
T1 construct: expressed in transfected cells; host or cells: HEK293T
Description: Interaction of Ku70 and Bax. […] (FIG. 4D) Co-immunoprecipitation of Flag-tagged-Ku70 and endogenous Bax. HEK293T cells (10^6 cells) were co-transfected with 1.0 μg pcDNA3-Bax and 1.0 μg pCMV-2B-control vector (Flag-tagged firefly luciferase), pCMV-2B-Ku70 wt (Flag-Ku70 wt), pCMV-2B-Ku701-535 (Flag-Ku701-535), pCMV-2B-Ku70496-609 (Flag-Ku70496-609) or pCMV-2B-Ku70536-609 (Flag-Ku70536-609) in the presence of 50 μM z-VAD-fmk. Co-immunoprecipitation was performed as described in FIG. 4C, and Western blot of Bax was done with anti-human Bax polyclonal antibody.
Immunoprecipitation was performed as follows according to the previous methods (Hsu and Youle, 1998, Matsuyama, 1998a). After precleaning of 600 ul of the sample with 50 ul of Protein G-Sepharose at 4° C. for 1 hour, immunoprecipitations were performed by incubating 200 ul of lysates with 20 ul of Protein G-Sepharose preabsorbed with 2 ug of anti-Bax polyclonal antibody or 2 ug of anti-Ku70 monoclonal antibody at 4° C. for 2 hours. After extensive washing in the buffer, beads were boiled in 40 ul of Laemmli buffer and 20 ul of the eluted proteins were subjected to SDS-PAGE immunoblot analysis.

Du145 cells = test: Apoptosis in Bax-deficient Du145 cells; format: cell-based, human; settings: Du145, 200 J/m^2 UVC, 24 hours
Description: Du145 cells (10^6 cells) were transfected with 0.5 μg PEGFP and 1.0 μg pCMV-2B (Vector), pcDNA3-Myc-XIAP (XIAP), pCMV-2B-Ku70 wt (Ku70 wt), or pCMV-2B-Ku70536-609 (Ku70536-609). One day following transfection, cells were exposed to 200 J/m^2 of UVC-irradiation. After 24 hours, apoptotic cells were counted as described in FIG. 1.
Apoptosis was induced by pcDNA3-human Bax (Bax-encoding plasmid)-transfection, Staurosporin (STS)-treatment, UVC-irradiation, anti-Fas-antibody-treatment (clone CH11), and human recombinant TRAIL-treatment (BD-Pharmingen). The amount of the plasmids, the concentration of STS, Fas-antibody, and TRAIL, and the energy of UVC-irradiation are as described in the figure legends. Apoptosis in the transfected cells were analyzed as follows: Plasmid encoding EGFP (0.5 ug of pEGFP) was transfected to all the groups to mark the transfected cells. One day following transfection of the plasmids listed in the figure legends or treatment of the cells with staurosporin (STS) or UVC-irradiation, cells were stained with Hoechst dye and cells with apoptotic nuclei were counted in GFP expressing cells under fluorescent microscope as previously reported (Wei, et al., 2001). Each point in the figures showing percentages of apoptosis represents the mean±SE of three experiments.

Bax [4] = test: Subcellular localization / mitochondrial translocation of Bax (fractionation, Western blot, confocal); format: cell-based; settings: HeLa cells 200 nM STS; HEK293T cells UVC 200 J/m^2
Description: FIG. 6A: Subcellular localization of Bax and Ku70. HeLa cells (10^7 cells) were transfected with 10 μg pCMV-2B (Control, STS,) or pCMV-2B-Ku70 (STS+Ku70). One day following transfection, except in the control group (Control), cells were treated by 200 nM STS (STS). One day after STS-treatment, cells were collected and subcellular fractionation was performed as described in Experimental Procedure. The levels of Ku70 (Ku70) and Bax (Bax) in each fraction were analyzed by Western blotting as described in Experimental Procedure. FoF1 ATP synthase subunit α (F1α) and PCNA (PCNA) were used as markers for mitochondrial and nuclear fractions, respectively. HM stands for “Heavy Membrane” fraction containing mitochondria. […] Cytosol fractions (20 μg protein) were separated by SDS-PAGE and analyzed by Western blotting for Ku70 (anti-Ku70 monoclonal antibody, BD-Pharmingen) and β-Tubulin (anti-β-Tubulin monoclonal antibody, BD-Pharmingen) levels. […] MEFs derived from wild-type (Ku70+/+) or Ku70-knockout mice (Ku70−/−) were analyzed as described in FIG. 6A. […] MEFs derived from wild-type (Ku70+/+) or Ku70-deficient (Ku70−/−) mice were treated with STS (200 nM) and cells were analyzed at indicated various periods after treatment as described in FIG. 6A. […]

Bax [5] = test: Mitochondrial translocation of Bax after TRAIL treatment in T98-G and Hep3B cells; format: cell-based, human; settings: T98G and Hep3B, 100 ng/ml TRAIL, 24 hours
Description: FIG. 14. […] One day following the transfection, cells were treated by etoposide (20 uM). One day after the addition of etoposide into the culture, cells were collected and subcellular fractionation was performed as described in FIG. 9. […] Bax leveles in the samples of the fractions of the cytosol (“Cytosol”) and the heavy membrane (“HM”) were analyzed by Western blotting (middle and lower panels). […] All cells were also co-transfected with the plasmid encoding Green Fluorescent Protein (GFP) (pEGFP plasmid) for the detection of the transfected cells by GFP expression. One day following the transfection, etoposide (20 uM), cisplatin (20 uM), doxorubicin (1 uM), or TRAIL (100 ng/ml) was added to the culture, and cells were culture for 48 hours. The percentages of apoptotic cells were counted in GFP-expressing cells by staining the nucleus with Hochst-dye on day 1 and 2 of the culture. […] T98-G (glioma cell line) and Hep3B (hepatoma cell line) cells were cultured for 24 hours in the absence (“Control”) or the presence (“TRAIL”) of 100 ng/ml TRAIL. After the culture, cells were collected and subcellular fractionation was performed as described in FIG. 2. The samples of the cytosol fraction (20 ug protein) (“Cytosol”) and the equivalent proportion of heavy membrane fraction (“HM”) were subjected to Western analysis of Bax.

T1 sequence (Q07812 whole entry): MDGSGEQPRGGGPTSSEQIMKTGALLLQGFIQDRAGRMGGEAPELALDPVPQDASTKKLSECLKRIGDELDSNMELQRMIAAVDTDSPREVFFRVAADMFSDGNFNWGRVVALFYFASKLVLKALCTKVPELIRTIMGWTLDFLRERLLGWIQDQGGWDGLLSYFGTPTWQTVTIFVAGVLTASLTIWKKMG

Row | Molecule | effect on UVC-irradiation-induced cell death (HEK293T cells [1]) | effect on Bax-induced apoptosis (HEK293T cells [2]) | binding to Bax (co-immunoprecipitation) (Bax [3]) | effect on STS-induced apoptosis (Hela cells; 200 nM STS) | further results
1 | CN[C@@H]1C[C@H]2O[C@@](C)([C@@H]1OC)n1c3ccccc3c3c4c(c5c6ccccc6n2c5c31)C(=O)NC4 [STS, Staurosporine, reference compound] | – | – | – | – | percentages of apoptotic cells (Hela cells; 200 nM STS, control 3±1%): 49±4%
2 | Ku70496-609: Ku70 mutant construct encoding amino acids 496-609 of Ku70, lacking Ku80-binding domain | retained the cytoprotective activities | retained the cytoprotective activities | bound to Bax | retained the cytoprotective activities | –
3 | Ku70536-609: Ku70 mutant expressing only the C-terminal 74 amino acids of Ku70 | sufficient to block | sufficient to block | bound to Bax | sufficient to block | effect on UVC-irradiation-induced cell death in Bax-deficient cells (Du145 cells): did not rescue Bax-deficient cells from UVC-irradiation-induced cell death; mitochondrial translocation of Bax induced by STS-treatment or UVC-irradiation (Bax [4]): inhibited Bax relocalization induced by UVC-irradiation
4 | COC(=O)C[C@H](NC(=O)[C@H](C)NC(=O)[C@@H](NC(=O)OCc1ccccc1)C(C)C)C(=O)CF [z-VAD-fmk, reference compound] (Cbz-Val-Ala-Asp(OMe)-CH2F) | – | – | – | – | percentages of apoptotic cells (HEK293T cells [1]; HEK293T cells, UVC 200 J/m^2 in presence of 50 uM z-VAD-fmk, one day, UV alone 42±5%): 9±1%; percentages of apoptotic cells (Hela cells; 200 nM STS in presence of z-VAD-fmk): 11±3%
5 | B1 | – | – | – | – | mitochondrial translocation of Bax (Bax [5]): did not induce the mitochondrial translocation of Bax
